Assay results as given in patent publication US8703428B2, “Single-cell label-free assay” (Corning Incorporated, priority 2007, dated 2014).

Target: β2-adrenergic receptor (β2AR) (Homo sapiens, UniProt P07550)
Method: For kinetic assays, the cells were washed with HBSS (Hanks Balanced Salt Solution with 20 mM HEPES) buffer.

Chain of β2-adrenergic receptor (β2AR) (P07550 whole entry): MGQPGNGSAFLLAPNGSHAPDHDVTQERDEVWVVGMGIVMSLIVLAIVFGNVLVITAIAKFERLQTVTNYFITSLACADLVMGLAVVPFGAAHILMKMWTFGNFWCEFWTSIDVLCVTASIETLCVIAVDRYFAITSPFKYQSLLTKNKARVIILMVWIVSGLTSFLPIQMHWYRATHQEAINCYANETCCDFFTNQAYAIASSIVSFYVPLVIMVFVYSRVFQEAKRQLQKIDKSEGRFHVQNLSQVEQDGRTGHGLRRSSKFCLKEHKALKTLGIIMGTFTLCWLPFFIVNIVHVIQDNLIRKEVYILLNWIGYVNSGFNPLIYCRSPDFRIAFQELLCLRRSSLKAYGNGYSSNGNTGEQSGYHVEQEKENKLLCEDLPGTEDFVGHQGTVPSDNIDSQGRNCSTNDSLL

## CNC[C@H](O)c1ccc(O)c(O)c1 [epinephrine]
A431 cells
  epinephrine-induced DMR signal (phases): a small N-DMR, followed by a significant P-DMR event
  epinephrine-induced DMR signal, dose dependence: dose-dependent DMR signal
Quiescent A431 cells, about 100% confluency, 2 nM epinephrine, pixel level
  distribution of DMR signals (P-DMR amplitude, transition time): relatively tight distribution and are relatively homogenous
